Experimental data published in PMC10641831 (Journal of Medicinal Chemistry, 2023).
Entries after “also recorded” stand apart in the source; their conditions may differ. Where two headings read alike, the source gives them in different places. Numbered stars: 1 amine (or outer) side, 2 acyl side, 3 side chain; on linkers, the order of the positions; unused ones are H or OH. Bridge positions count the residues as written; N and C are the ends. Square brackets hold non-standard residues; d marks the D form. Peptide text beside a SMILES is read from it. AMPB(E) = O=C(c1ccc(/N=N/c2ccc(CN[*:1])cc2)cc1)[*:2]

What was measured:
[1] = tested on: GFP-conjugated human V1bR; assay: Immunostaining and confocal microscopy: V1bR-GFP activation/internalization in HEK293 cells; format: cell-based; details: 1 nM, 60 min
Source text: (§1) The most promising photoprobe, 12, with a 5.3-fold photoswitch activity window at V1bR, was selected for more comprehensive in vitro experiments to validate its application scope for biological and neurological studies. As a model system, we used HEK293 cells overexpressing GFP-tagged V1bR, where receptor activation via pCREB (phosphorylated cAMP response element binding protein) and V1bR-GFP internalization can be followed through immunostaining and confocal scanning microscopy.
(§2) HEK293 cells stably expressing a C-terminal-conjugated GFP human V1bR were cultured in a full growth medium consisting of DMEM/GlutaMAX (Gibco, Thermo Fisher), containing 0.5 mg/mL G-418 (Gibco, Thermo Fisher), 1 mM sodium pyruvate (Gibco, Thermo Fisher), and 10% fetal bovine serum (Gibco, Thermo Fisher). […]
(§3) Coverslips were first incubated with 5% normal donkey serum (Jackson Immuno Research), 2% bovine serum albumin (Sigma-Aldrich, Merck), and 0.2% Triton X-100 (Sigma-Aldrich, Merck) to block nonspecific protein binding. […] Images were analyzed with ZEN pro (Zeiss) ImageJ 1.52a and collated in CorelDraw 2019. To determine pCREB activation, the fluorescence was normalized to the negative control (cells treated with a serum-free medium without G-418 instead of 12), as already minor receptor interactions can lead to pCREB activity in overexpression systems.

[2] = tested on: pCREB; assay: Immunostaining and confocal microscopy: pCREB activation in HEK293 cells overexpressing V1bR-GFP; format: cell-based, human; details: 1 nM, 60 min, normalized to negative control; VP 10 nM positive control
Source text: as §1, §2, §3

[3] = biological target: T1, hV1aR (Homo sapiens, UniProt P37288); assay: IP-One accumulation assay, agonist function, HEK293 cells expressing hV1aR; format: cell-based; details: for agonist activity at V1aR: concentrations up to 10 μM; for EC50: supplementary CSV, µM
T1 construct: expressed in transfected cells
T1 sequence (P37288 whole entry): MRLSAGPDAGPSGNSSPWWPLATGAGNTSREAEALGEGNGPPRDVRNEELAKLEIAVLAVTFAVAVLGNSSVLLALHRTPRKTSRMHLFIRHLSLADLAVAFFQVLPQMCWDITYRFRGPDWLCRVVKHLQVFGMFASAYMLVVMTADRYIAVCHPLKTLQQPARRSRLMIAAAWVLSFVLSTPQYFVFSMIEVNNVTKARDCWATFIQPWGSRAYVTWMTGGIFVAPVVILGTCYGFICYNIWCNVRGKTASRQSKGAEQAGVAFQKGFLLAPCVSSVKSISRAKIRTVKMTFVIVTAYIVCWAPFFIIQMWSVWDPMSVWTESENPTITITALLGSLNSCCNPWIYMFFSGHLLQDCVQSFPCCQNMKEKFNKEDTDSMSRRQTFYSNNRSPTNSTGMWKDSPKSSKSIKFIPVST

[4] = biological target: T2, hV1bR (Homo sapiens, UniProt P47901); assay: IP-One accumulation assay, agonist function, HEK293 cells expressing hV1bR; format: cell-based; details: for reduced potency at V1bR compared to VP: EC50 vs VP; for EC50: supplementary CSV
T2 construct: expressed in transfected cells
T2 sequence (P47901 1-424): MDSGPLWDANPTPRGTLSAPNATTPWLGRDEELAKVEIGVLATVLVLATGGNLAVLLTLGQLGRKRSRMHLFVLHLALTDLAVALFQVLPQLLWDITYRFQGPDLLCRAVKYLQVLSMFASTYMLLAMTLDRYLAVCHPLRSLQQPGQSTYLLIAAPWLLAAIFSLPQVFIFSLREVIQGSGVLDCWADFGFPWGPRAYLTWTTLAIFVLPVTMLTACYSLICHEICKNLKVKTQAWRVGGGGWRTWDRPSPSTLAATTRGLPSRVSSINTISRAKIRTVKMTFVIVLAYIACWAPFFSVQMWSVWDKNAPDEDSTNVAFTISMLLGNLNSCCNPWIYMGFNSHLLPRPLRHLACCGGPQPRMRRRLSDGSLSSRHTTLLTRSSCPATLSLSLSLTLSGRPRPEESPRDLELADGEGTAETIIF

[5] = biological target: T1, hV1aR; assay: IP-One accumulation assay, antagonist function (VP displacement) at hV1aR; format: cell-based; details: coaddition of VP 1 nM; for antagonistic activity at V1aR: 10 and 100 μM; for VP displacement: at 10 μM
Method: This was done via coaddition and prior mixing of VP (EC60 of 1 nM) and the potential antagonists 13–19. […] IP1 accumulation was measured at concentrations of 10 and 100 μM for peptides 13–19.
Figure 5 Functional screen for antagonistic activities at V1aR. […] Data represent mean ± SEM from at least three independent experiments, each performed in triplicate.
To assess the antagonistic properties of compounds 13–19, a 4-fold concentrated dilution series in stimulation buffer was prepared for each isomer. Separately, a 4-fold concentrated VP solution was prepared (4 nM, final concentration 1 nM). A 1:1 mixture of VP solution and the diluted ligand was made to end up with a 2-fold concentration of both compounds. The following steps were conducted as described above for the agonist mode. The FRET ratios (665/615 nm) were calculated and obtained values were normalized to the basal activity value (0%) and maximal effect of VP (100%). Atosiban was used as a positive control.

[6] = Thermal half-life of the Z-isomer (UV/vis, 96-well plate); format: physicochemical; details: 25 °C; for t1/2 (thermal half-life, Figure S50): 50 µM in HEPES buffer + 0.25% DMSO, pre-irradiated with 340 nm; for t1/2 (thermal half-life Z to E): preirradiation with 340 nm, HEPES buffer pH 7.4
Source text: All photoprobes were investigated regarding their photophysical properties in aqueous buffer (pH 7.5), mimicking the conditions of the biological functional assays. […] Upon irradiation with 340 nm light for 10 s and monitoring via UV/vis spectroscopy, all compounds could be switched to the Z-isomer, reaching the photostationary state (PSS). Compounds 8–17 containing azobenzene could be switched back to the E-isomer by irradiation at 420 nm for 60 s. Compounds 18 and 19 containing arylazopyrazole could be reverted to the E isomer by using 528 nm light. […] The PSS, when switched to the Z-isomer, was consistently good, with a PSS of 81–95%. […] The thermal half-lives of 10 and 12 were also measured at 37 °C, representing the temperature during the biological assays. As expected, the thermal half-lives decreased, however, the ratio of E and Z isomers remained stable during the incubation period of the biological assays (1 h).
Starting materials and commercial reagents were purchased from Acros, Alfa Aesar, Fisher, Fluka, Fluorochem, Merck (Sigma-Aldrich), TCI and VWR and were used without further purification. Solvents were used in p.a. quality or dried according to common procedures if necessary. All reactions with oxygen- or moisture-sensitive reagents were carried out in glassware that was dried before use by heating under vacuum. Dry nitrogen or argon was used for an inert gas atmosphere. All NMR spectra were measured at room temperature (20 °C) using a Bruker Avance 400 (400 MHz for ^1H and 101 MHz for ^13C) or a Bruker Avance 600 (600 MHz for ^1H and 151 MHz for ^13C) NMR spectrometer. All chemical shifts are reported in δ-scale as parts per million [ppm] (multiplicity, coupling constant J, number of protons) relative to the solvent residual peaks. Coupling constants J are given in hertz [Hz]. Abbreviations used for signal multiplicity: ^1H NMR: s = singlet, d = doublet, dd = doublet of doublets, ddd = doublet of doublets of doublets, dt = doublet of triplets, t = triplet, td = triplet of doublets, q = quartet, and m = multiplet. All mass spectra were recorded on an Agilent Q-TOF 6540 UHD, Finnigan MAT SSQ 710 A, Jeol AccuTOF GCX or ThermoQuest Finnigan TSQ 7000 spectrometer. Absorption spectra were recorded on an UV/vis Agilent Cary 50 spectrometer. Thermal half-lives were measured on a 96-well plate in a Thermo Scientific Multiskan Spectrum. Analytical TLC was performed on silica gel-coated alumina plates (MN precoated TLC-sheets ALUGRAM Xtra SIL G/UV254). Visualization was done using UV light (254 or 366 nm) or staining with ninhydrin solution. Column chromatography was performed on a Biotage Isolera One automated flash purification system with a UV/vis detector. Analytical RP-HPLC was carried out on an Agilent 1220 Infinity LC System (column: P/No 00F-4251-B0, Phenomenex Luna 3 μm C18(2) 100 Å, LC column 150 mm × 2.0 mm). Purification by preparative HPLC was conducted on a preparative HPLC Agilent 1260 Infinity LC System [column: P/No 00G-4253-P0-AX, Phenomenex Luna 10 μm C18(2) 100 Å, LC column 250 mm × 21.2 mm]. The eluent systems were used as specified. After the purification process, solvents were removed by lyophilization. Switching experiments were done with a 340 nm LED (SSC VIOSYS CUD4AF1B, 500 mA, 55 mW), 420 nm LED (ILH-XC01-S410-SC211-WIR200, 800 mA, 440 mW), and 528 nm LED (OSRAM Oslon SSL 80 green, 500 mA, 34 mW). Purity of all photoprobes was >95% as determined by analytical RP-HPLC at 220 nm in DMSO.
1.3.4. Thermal Half-lives
Thermal half-lives were measured in a 96-well plate in a Thermo Scientific Multiskan® Spectrum at 25 °C (and at 37 °C for compounds 10 and 12). The solutions (50 µM in HEPES buffer + 0.25% DMSO) were pre-irradiated with 340 nm. The absorption at 335 nm was measured every 3 h. The data was analyzed using Origin 2021.
0,7 1/2 ExpDec1 Fit of Sheet1 B
Modell ExpDec1 0,35 Modell ExpDec1
0,6 Gleichung y = A 1 *e xp (-x/t1 ) + y0 Gleichung y = A 1 *e xp (-x/t1 ) + y0 […]

[7] = Photostationary state by analytical C18-RP-HPLC; format: physicochemical; details: for PSS (E → Z): irradiation with 340 nm, HEPES buffer; for PSS (Z → E): irradiation with 420 nm (8–17) or 528 nm (18, 19)
Method: All photoprobes were investigated regarding their photophysical properties in aqueous buffer (pH 7.5), mimicking the conditions of the biological functional assays.
1.3.2. Photostationary States
Photostationary states (PSS) were measured on analytical C18-RP-HPLC (flow: 0.3 mL/min, solvent A: H2O (0.05% TFA), solvent B: MeCN). To determine the PSS of the photoswitches, the samples (in 0.1 mM in HEPES buffer + 1% DMSO, pH 7.5) were irradiated first with 340 nm to get the Z-isomer. Afterwards, the sample was irradiated with 420 nm (8-17) or 528 nm (18 and 19), respectively, to get back to the E-isomer. The samples were measured at the isosbestic points.

[8] = biological target: human oxytocin receptor (human) (UniProt P30559)
Sequence of human oxytocin receptor (human) (P30559 whole entry): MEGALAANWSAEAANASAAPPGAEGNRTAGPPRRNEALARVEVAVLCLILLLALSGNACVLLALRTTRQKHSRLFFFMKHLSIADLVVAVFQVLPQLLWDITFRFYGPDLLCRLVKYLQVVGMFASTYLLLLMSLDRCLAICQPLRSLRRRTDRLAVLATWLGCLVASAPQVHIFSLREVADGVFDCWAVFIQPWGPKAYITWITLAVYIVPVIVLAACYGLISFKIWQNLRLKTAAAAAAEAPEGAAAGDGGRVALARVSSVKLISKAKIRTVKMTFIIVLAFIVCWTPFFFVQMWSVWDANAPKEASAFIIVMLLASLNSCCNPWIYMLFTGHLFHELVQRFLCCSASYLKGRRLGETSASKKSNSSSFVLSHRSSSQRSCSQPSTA

[9] = read-out: activity E-isomer V1aR
[10] = read-out: activity Z-isomer V1aR
[11] = read-out: activity E-isomer V1bR

Sequence of Oxytocin (P01178 whole entry, looked up): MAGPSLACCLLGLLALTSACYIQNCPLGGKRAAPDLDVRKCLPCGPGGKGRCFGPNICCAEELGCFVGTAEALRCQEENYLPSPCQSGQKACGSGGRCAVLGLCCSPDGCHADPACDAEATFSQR

| Compound | V1bR-GFP receptor activation / internalization [1] | pCREB activation (CREB phosphorylation) [2] | agonist activity at V1aR [3] | EC50 [3, 9] [µM] | EC50 [3, 10] [µM] | reduced potency at V1bR compared to VP [4] | EC50 [4, 11] [µM] | EC50 ([4]; read-out: activity Z-isomer V1bR) [µM] | antagonistic activity at V1aR [5] | VP displacement [5] [%] | t1/2 (thermal half-life, Figure S50) [6] [h] | t1/2 (thermal half-life Z to E) [6] [h] | PSS (E → Z) [7] [%] | PSS (Z → E) [7] [%] | Emax (efficacy, reference), IP-One accumulation, HEK293 cells expressing hOTR [8] [%] |
| --- | --- | --- | --- | --- | --- | --- | --- | --- | --- | --- | --- | --- | --- | --- | --- |
| N=C(N)NCCC[C@H](NC(=O)[C@@H]1CCCN1C(=O)[C@@H]1CSSC[C@H](N)C(=O)N[C@@H](Cc2ccc(O)cc2)C(=O)N[C@@H](Cc2ccc(/N=N/c3ccccc3)cc2)C(=O)N[C@@H](CCC(N)=O)C(=O)N[C@@H](CC(N)=O)C(=O)N1)C(=O)NCC(N)=O [E-12] | did not cause any visible receptor activation or internalization; also recorded: did not induce V1bR-GFP internalization; also recorded: inactive | inactive | – | – | – | – | – | – | – | – | – | – | – | – | – |
| N=C(N)NCCC[C@H](NC(=O)[C@@H]1CCCN1C(=O)[C@@H]1CSSC[C@H](N)C(=O)N[C@@H](Cc2ccc(O)cc2)C(=O)N[C@@H](Cc2ccc(/N=N\c3ccccc3)cc2)C(=O)N[C@@H](CCC(N)=O)C(=O)N[C@@H](CC(N)=O)C(=O)N1)C(=O)NCC(N)=O [Z-12] | activated V1bR-GFP; also recorded: induced V1bR-GFP internalization | significantly (P < 0.001) activated pCREB at levels comparable to VP; also recorded: significantly induced CREB phosphorylation | – | – | – | – | – | – | – | – | – | – | – | – | – |
| NC(=O)CC[C@@H]1NC(=O)[C@H](Cc2ccccc2)NC(=O)[C@H](Cc2ccc(O)cc2)NC(=O)[C@@H](N)CSSC[C@@H](C(=O)NCc2ccc(/N=N/c3ccc(C(=O)NCC(N)=O)cc3)cc2)NC(=O)[C@H](CC(N)=O)NC1=O [compound 13, [AzbL^7/8]-VP] (H-CYFQNC[AMPB(E)]G-NH2; disulfide 1-6) | – | – | complete loss of potency | > 10 | > 10 | 700–2000 fold | 11.3 ± 1.83 | 7.23 ± 1.58 | some level of antagonistic activity | 76 | 12.4 | 12 | 85 | 79 | – |
| N=C(N)NCCC[C@H](NC(=O)c1ccc(/N=N/c2ccc(CNC(=O)[C@@H]3CSSC[C@H](N)C(=O)N[C@@H](Cc4ccc(O)cc4)C(=O)N[C@@H](Cc4ccccc4)C(=O)N[C@@H](CCC(N)=O)C(=O)N[C@@H](CC(N)=O)C(=O)N3)cc2)cc1)C(=O)NCC(N)=O [compound 14, [AzbL^7]-VP] (H-CYFQNC[AMPB(E)]RG-NH2; disulfide 1-6) | – | – | complete loss of potency | > 10 | > 10 | 700–2000 fold | 4.97 ± 0.754 | – | some level of antagonistic activity | 85 | 33.6 | 33.6 | 81 | 86 | – |
| Oxytocin (from UniProt P01178 20-28) (peptide) | – | – | – | – | – | – | – | – | – | – | – | – | – | – | 100 |
| [AzbC(o,o)^1,Dap^6]-VP [compound 15] | – | – | – | – | – | – | – | – | some antagonistic properties | – | 64.8 | 64.8 | 88 | 69 | – |
